The record followed here is patent US10626081B2, “Farnesoid X receptor agonists and uses thereof” (Metacrine, Inc., priority 2015, dated 2020).

Assay [1] concerns the target T1, FXR (Homo sapiens, UniProt Q96RI1).
T1 construct: expressed in transfected cells; host or cells: CV-1 cells
T1 sequence (Q96RI1 1-486): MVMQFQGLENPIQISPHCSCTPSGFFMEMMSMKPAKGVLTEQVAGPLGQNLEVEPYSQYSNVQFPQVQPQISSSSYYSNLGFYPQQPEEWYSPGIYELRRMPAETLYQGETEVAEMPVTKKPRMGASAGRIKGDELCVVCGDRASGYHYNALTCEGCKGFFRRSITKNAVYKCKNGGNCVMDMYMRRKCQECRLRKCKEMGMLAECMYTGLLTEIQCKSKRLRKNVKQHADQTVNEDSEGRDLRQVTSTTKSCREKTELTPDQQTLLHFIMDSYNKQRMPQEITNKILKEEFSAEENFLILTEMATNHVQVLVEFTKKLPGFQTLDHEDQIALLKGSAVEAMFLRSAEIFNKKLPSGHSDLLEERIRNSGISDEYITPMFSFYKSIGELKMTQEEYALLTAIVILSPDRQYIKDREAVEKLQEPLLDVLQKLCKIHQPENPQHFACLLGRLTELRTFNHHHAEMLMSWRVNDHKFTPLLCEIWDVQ
T1 sequence (P19793 1-462 partner): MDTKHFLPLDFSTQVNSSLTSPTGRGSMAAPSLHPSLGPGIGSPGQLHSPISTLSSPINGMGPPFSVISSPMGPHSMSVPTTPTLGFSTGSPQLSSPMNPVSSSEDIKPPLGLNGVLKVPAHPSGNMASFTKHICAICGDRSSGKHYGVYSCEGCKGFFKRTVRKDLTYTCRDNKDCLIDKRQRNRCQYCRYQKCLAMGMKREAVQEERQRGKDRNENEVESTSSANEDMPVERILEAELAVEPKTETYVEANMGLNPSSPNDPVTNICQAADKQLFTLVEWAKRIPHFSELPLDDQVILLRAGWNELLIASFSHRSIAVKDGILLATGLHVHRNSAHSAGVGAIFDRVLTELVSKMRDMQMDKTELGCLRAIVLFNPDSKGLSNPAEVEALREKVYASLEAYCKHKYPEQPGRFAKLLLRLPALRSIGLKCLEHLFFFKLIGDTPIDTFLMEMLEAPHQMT
Briefly: In Vitro FXR Assay (PGL3): luciferase reporter in transfected CV-1 cells. It is filed as cell-based. Particulars: CV-1 cells transfected with hFXR, hRXR, PGL3-ECRE*6-luc; 18 h incubation; luminescence. The procedure: Example B-1: In Vitro FXR Assay (PGL3)
CV-1 cells were seeded at a density of 2,000,000 cells in a T175 flask with DMEM+10% charcoal double-stripped FBS and incubated at 37° C. in a 5% CO2 for 18 h (O/N).
After 18 h of incubation, the medium in the T175 flask was changed with fresh DMEM+10% charcoal super-stripped serum.
To prepare the transfection reaction mixture, the transfection reagent (X-tremeGENE HP from Roche, Cat #06 366 236 001) was added in to a 1.5 mL microcentrifuge tube labelled “A” at a ratio of 1:3 (DNA in transfection reagent in μL). OptiMEM medium (Life Technologies, Cat #31985-062) was added accordingly to provide a total volume of 1 mL. The transfection reaction mixture was then briefly vortexed and incubated at room temperature for 5 minutes.
In a separate 1.5 mL microcentrifuge tube labelled “B”, 100 μL OptiMEM and plasmids XPD90Gal pCMXhFXRfl, pCMXhRXRfl+PGL3-ECRE*6-luc+CMX-YFP in the ratio 2 μg:2 μg:18 μg:3 μg were added. This microcentrifuge tube “B” was then briefly vortexed and incubated at room temperature for 5 minutes.
The total volume in tube labelled “A” was then transferred in to tube labelled “B.” The mixture was then briefly vortexed and the transfection:DNA complex was then incubated for about 15-20 minutes at room temperature.
Following incubation, the transfection reagent/DNA mixture complex was then added to cells in the T175 flask and the cells were incubated at […] (O/N) at 37° C. in 5% CO2.
In a 96 well plate, a half logarithmic serial dilution was prepared. OptiMEM was used as the diluent. Using any of one of the compounds described herein, a compound stock solution of 10 mM was prepared. An initial 1:100 dilution was made into the first well for a final concentration of 100 μM. The final concentrations in the 96-well plate was prepared by using a multichannel pipette to transfer 5 μL of the diluted compound to 384-well plate in quadruplicate.
Cells in T175 flask were trypsinized and cells were resuspended in 40 mL phenol red free DMEM+10% charcoal super-stripped FBS. Typically, one T175 flask was sufficient to seed two 384 well plates. CV-1 cells were seeded at 45 μL cell suspension/well using a multi-channel pipet or a 384 multidrop dispenser. The cells were then incubated for 18 hrs, overnight.
After removing the plates from the incubator, the medium was flicked out of plate and 384 well plate was turned upside down onto paper towel. The remaining medium was gently tapped out. 15 μL lysis buffer was then added to each well using a multichannel pipet or a 384 well multi-drop dispenser. After incubation for 10 minutes at room temperature on shaker, 30 μL Luciferase buffer was added to each well. Luminescence counts were taken immediately using the Perkin Elmer Envision.
The ability of the compounds disclosed herein to […] FXR activity was quantified and the respective EC50 value was determined. Fex=fexaramine.
(A reporter such as luciferase makes a cellular process visible.)

The target in assay [2] is T1, FXR. The experiment in a line: In Vitro FXR Assay (TK): TK-ECRE-luc reporter in transfected CV-1 cells. The note with it: CV-1 cells transfected with hFXR, hRXR, 18 h incubation, luminescence. It is filed as cell-based. The method in brief: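 Luciferase read-out from lysed CV-1 cells exposed 18 h to DMSO-diluted compounds. Cells had been transfected overnight with expression plasmids for hFXR and hRXR plus TK-ECRE-luc reporter and pCMX-YFP, grown in charcoal-stripped serum at 37 °C, 5% CO2.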

`COC(=O)/C=C/c1cccc(N(Cc2ccc(-c3ccc(N(C)C)cc3)cc2)C(=O)C23CC4CC(CC(C4)C2)C3)c1` [compound 12, (E)-Methyl 3-(3-(-N-((4′-(dimethylamino)-[1,1′-biphenyl]-4-yl)methyl)adamantane-1-carboxamido)phenyl)acrylate]: the “Cmpd/Fex (ratio of the EC50 for the test compound relative to the EC50 of the Fexaramine control)” value on FXR [1] is “+++ (‘+++’ means Cmpd/Fex < 10)”. Also, the EC50 at FXR [2] lay within 1000 to 10000 nM.

Regarding `COC(=O)C#Cc1cccc(N(Cc2ccc(-c3ccc(N(C)C)cc3)cc2)C(=O)C2CCCCC2)c1` [compound 87, Methyl 3-(3-(N-((4′-(Dimethylamino)-[1,1′-biphenyl]-4-yl)methyl)cyclohexanecarboxamido)phenyl) propiolate], the “Cmpd/Fex (ratio of the EC50 for the test compound relative to the EC50 of the Fexaramine control)” value at FXR [1] is on record as “+++ (‘+++’ means Cmpd/Fex < 10)”. At FXR [2], this compound returned an EC50 of at most 1000 nM.

With `COC(=O)/C=C/c1cccc(N(Cc2ccc(-c3ccc(N(C)C)cc3)cc2)C(=O)C2CCCCC2)c1C` [compound 41, (E)-Methyl 3-(3-(N-((4′-(dimethylamino)-[1,1′-biphenyl]-4-yl)methyl)cyclohexanecarboxamido)-2-methylphenyl)acrylate], at FXR [1], the “Cmpd/Fex (ratio of the EC50 for the test compound relative to the EC50 of the Fexaramine control)” value is listed as “++ (‘++’ means Cmpd/Fex > 10 & < 100)”. On FXR [2], the EC50 was 1000 to 10000 nM.

Consider `COC(=O)CC(C)c1cccc(N(Cc2ccc(-c3ccc(N(C)C)cc3)cc2)C(=O)C2CCCCC2)c1` (centres unmarked) [compound 94, Methyl 3-(3-(N-((4′-(dimethylamino)-[1,1′-biphenyl]-4-yl)methyl)cyclohexanecarboxamido)phenyl) butanoate], for which the “Cmpd/Fex (ratio of the EC50 for the test compound relative to the EC50 of the Fexaramine control)” value at FXR [1] is “++ (‘++’ means Cmpd/Fex > 10 & < 100)”. This compound also gave an EC50 at FXR [2] of 1000 to 10000 nM.

For the compound `COC(=O)/C=C/c1cccc(N(Cc2ccc(-c3ccc(N(C)C)cc3)cc2)C(=O)N2CCCCC2)c1` [compound 16], the “Cmpd/Fex (ratio of the EC50 for the test compound relative to the EC50 of the Fexaramine control)” value at FXR [1] is listed as “++ (‘++’ means Cmpd/Fex > 10 & < 100)”. Also, the EC50 at FXR [2] fell in the range of 1000 to 10000 nM.

`COC(=O)/C=C/c1cccc(N(Cc2ccc(-c3ccccc3O)cc2)C(=O)C2CCCCC2)c1` [compound 56, (E)-Methyl 3-(3-(N-((2′-hydroxy-[1,1′-biphenyl]-4-yl)methyl)cyclohexanecarboxamido)phenyl) acrylate]: on FXR [1], the “Cmpd/Fex (ratio of the EC50 for the test compound relative to the EC50 of the Fexaramine control)” value is “++ (‘++’ means Cmpd/Fex > 10 & < 100)”. Also, the EC50 at FXR [2] was in the range of 1000 to 10000 nM.

On to `COC(=O)CCc1ccc(C)c(N(Cc2ccc(-c3ccc(N(C)C)cc3)cc2)C(=O)C2CCCCC2)c1` [compound 93, Methyl 3-(3-(N-((4′-(dimethylamino)-[1,1′-biphenyl]-4-yl)methyl)cyclohexanecarboxamido)-4-methylphenyl)propanoate], for which, on FXR [1], the “Cmpd/Fex (ratio of the EC50 for the test compound relative to the EC50 of the Fexaramine control)” value is “++ (‘++’ means Cmpd/Fex > 10 & < 100)”. On FXR [2], this compound yielded an EC50 above 10000 nM.

Regarding `CNc1ccc(-c2ccc(CN(C(=O)C3CCCCC3)c3cccc(/C=C/C(=O)OC)c3)cc2)cc1` [compound 61, (E)-Methyl 3-(3-(N-((4′-(methylamino)-[1,1′-biphenyl]-4-yl)methyl)cyclohexanecarboxamido)phenyl) acrylate], the “Cmpd/Fex (ratio of the EC50 for the test compound relative to the EC50 of the Fexaramine control)” value on FXR [1] is listed as “+++ (‘+++’ means Cmpd/Fex < 10)”. Also, on FXR [2], the EC50 fell in the range of 1000 to 10000 nM.

In the case of `COC(=O)/C=C/c1cccc(N(Cc2ccc(N3CCN(C)CC3)cc2)C(=O)C2CCCCC2)c1` [compound 76, (E)-Methyl 3-(3-(N-(4-(4-methylpiperazin-1-yl)benzyl)cyclohexanecarboxamido)phenyl) acrylate], at FXR [1], the “Cmpd/Fex (ratio of the EC50 for the test compound relative to the EC50 of the Fexaramine control)” value is recorded as “+ (‘+’ means Cmpd/Fex > 100)”.

Take `COC(=O)/C=C/c1cccc(N(Cc2ccc(N3CCNCC3)cc2)C(=O)C2CCCCC2)c1` [compound 79, (E)-Methyl 3-(3-(N-(4-(piperazin-1-yl)benzyl)cyclohexanecarboxamido)phenyl) acrylate]: at FXR [1], the “Cmpd/Fex (ratio of the EC50 for the test compound relative to the EC50 of the Fexaramine control)” value is “+ (‘+’ means Cmpd/Fex > 100)”.

Turning to `CN(C)c1ccc(-c2ccc(CN(C(=O)C3CCCCC3)c3cccc(/C=C/C(=O)OCC4CCCO4)c3)cc2)cc1` (centres unmarked) [86.5, (E)-(Tetrahydrofuran-2-yl) methyl 3-(3-(N-((4′-(dimethylamino)-[1,1′-biphenyl]-4-yl)methyl)cyclohexanecarboxamido)phenyl) acrylate], at FXR [2], the EC50 is above 10000 nM.

With `COC(=O)/C=C/c1cccc(N(Cc2ccc(-c3ccc(N(C)C)cc3)cc2)C(=O)C(C)(C)CO)c1` [13.23, (E)-Methyl 3-(3-(N-((4′-(dimethylamino)-[1,1′-biphenyl]-4-yl)methyl)-3-hydroxy-2,2-dimethylpropanamido)phenyl)acrylate], at FXR [2], the EC50 is 1000 to 10000 nM.

Compound `COC(=O)/C=C/c1cccc(N(Cc2ccc(-c3ccc(N(C)C)nn3)cc2)C(=O)C2CCCCC2)c1` [75.5, (E)-Methyl 3-(3-(N-(4-(6-(dimethylamino)pyridazin-3-yl)benzyl)cyclohexanecarboxamido)phenyl) acrylate] displayed an EC50 at FXR [2] of 1000 to 10000 nM.

Turning to `COC(=O)/C=C/c1cccc(N(Cc2ccc(-c3ccc4c(c3)c(F)nn4C)cc2)C(=O)C2CCCCC2)c1` [75.18, (E)-Methyl 3-(3-(N-(4-(3-fluoro-1-methyl-1H-indazol-5-yl)benzyl)cyclohexanecarboxamido)phenyl) acrylate], the EC50 at FXR [2] is at most 1000 nM.

Consider `COC(=O)/C=C/c1cccc(N(Cc2ccc(-c3ccc(N(C)C)cc3)cc2)C(=O)c2ccc(F)cc2)c1` [13.2, (E)-Methyl 3-(3-(N-((4′-(dimethylamino)-[1,1′-biphenyl]-4-yl)methyl)-4-fluorobenzamido)phenyl)acrylate], for which the EC50 on FXR [2] was 1000 to 10000 nM.

As for `COC(=O)/C=C/c1cccc(N(Cc2ccc(-c3ccc(N(C)C)cc3)cc2)C(=O)[C@H]2CC[C@H](NC(C)=O)CC2)c1` [98.1, trans-(E)-Methyl 3-(3-(4-acetamido-N-((4′-(dimethylamino)-[1,1′-biphenyl]-4-yl)methyl)cyclohexanecarboxamido)phenyl)acrylate], the EC50 at FXR [2] is at most 1000 nM.

Turning to `COC(=O)/C=C/c1cc(C#N)cc(N(Cc2ccc(-c3ccc(N(C)C)cc3)cc2)C(=O)C2CCCCC2)c1` [86.9, (E)-Methyl 3-(3-cyano-5-(N-((4′-(dimethylamino)-[1,1′-biphenyl]-4-yl)methyl)cyclohexanecarboxamido)phenyl) acrylate], the EC50 on FXR [2] was in the range of 1000 to 10000 nM.

Take `COC(=O)/C=C/c1cccc(N(Cc2ccc(-c3ccc(OC)c(Cl)c3)cc2)C(=O)C2CCCCC2)c1` [62.10, (E)-Methyl 3-(3-(N-((3′-chloro-4′-methoxy-[1,1′-biphenyl]-4-yl)methyl)cyclohexanecarboxamido)phenyl) acrylate]: the EC50 at FXR [2] is at most 1000 nM.

What is called EC50 is the midpoint of the concentration-response curve.
